Measured values taken from patent US20230131899A1, “INHIBITORS OF MICROBIALLY INDUCED AMYLOID” (Axial Therapeutics, Inc., priority 2020, published 2023).
Like-named read-outs stand apart in the source and are kept apart here.

Molecular target: T1, E. coli CsgA (Escherichia coli, UniProt P28307)
T1 construct: made in house; host or cells: E. coli NEB 3016 slyD::kan, pET11d
Assay: In vitro ThioflavinT assay of CsgA aggregation (CsgA ThT Assay)
Assay type: biochemical
Conditions: for remaining activity at 25 µM: compound 25 μM; for remaining activity at 100 µM: compound 100 μM
Summary of the method: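 Purified C-terminal His-tagged CsgA, monomerised by desalting and 30-kDa filtration, at 2-20 μM with 20-40 μM ThT in 50 mM potassium phosphate pH 7.3, 1% DMSO, compounds 3.125-200 uM; room temperature, fluorescence (ex 438/em 495 nm) read every 15 min. Background-subtracted signal expressed as percent inhibition versus vehicle at 6-6.5 or 8-9 h, or as percent control AUC.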

[1] = read-out: CsgA ThT Assay (2 μM CsgA) % Control Bmax 25 μM, activity range, class symbol, CsgA 2 μM, white plates
[2] = read-out: CsgA ThT Assay (2 μM CsgA) % Control Bmax 25 μM, mean Bmax as percentage of DMSO control, CsgA 2 μM, white plates
[3] = read-out: CsgA ThT Assay (2 μM CsgA) % Control Bmax 100 μM, activity range, class symbol, CsgA 2 μM, white plates
[4] = read-out: CsgA ThT Assay (2 μM CsgA) % Control Bmax 100 μM, mean Bmax as percentage of DMSO control, CsgA 2 μM, white plates
[5] = read-out: CsgA ThT Assay (10 μM CsgA) % Control AUC at 1005 minutes, 25 μM (activity range), CsgA 10 μM, black plates, 1005 minutes, class symbol
[6] = read-out: CsgA ThT Assay (10 μM CsgA) % Control AUC at 1005 minutes, 25 μM, mean AUC as % of DMSO control, CsgA 10 μM, black plates, 1005 minutes
[7] = read-out: CsgA ThT Assay (10 μM CsgA) % Control AUC at 1005 minutes, 100 μM (activity range), CsgA 10 μM, black plates, 1005 minutes, class symbol
[8] = read-out: CsgA ThT Assay (10 μM CsgA) % Control AUC at 1005 minutes, 100 μM, mean AUC as % of DMSO control, CsgA 10 μM, black plates, 1005 minutes

T1 sequence (P28307 23-151): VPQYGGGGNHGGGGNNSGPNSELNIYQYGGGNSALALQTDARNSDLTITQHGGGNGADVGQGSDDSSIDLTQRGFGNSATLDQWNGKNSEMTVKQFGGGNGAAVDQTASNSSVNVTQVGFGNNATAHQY

Row | Structure (SMILES) | remaining activity at 25 µM [1] [%] | remaining activity at 25 µM [2] [%] | remaining activity at 100 µM [3] [%] | remaining activity at 100 µM [4] [%] | remaining activity at 25 µM [5] [%] | remaining activity at 25 µM [6] [%] | remaining activity at 100 µM [7] [%] | remaining activity at 100 µM [8] [%]
1 | CCc1c(Cc2cccc3ccccc23)c(-c2cccc(C(F)(F)F)c2)c2n(c1=O)C(C(=O)O)CN2Cc1ccccc1 (stereo not drawn) [Compound 140, 1-benzyl-6-ethyl-7-(naphthalen-1-ylmethyl)-5-oxo-8-(3-(trifluoromethyl)phenyl)-1,2,3,5-tetrahydroimidazo[1,2-a]pyridine-3-carboxylic acid] | 31 to 60 | 35 | 11 to 31 | 19 | – | – | – | –
2 | CN1CC(C(=O)O)n2c(c(-c3cccc(C(F)(F)F)c3)c(Cc3cccc4ccccc34)c(NCc3ccccc3)c2=O)S1(=O)=O (stereo not drawn) [Compound 071] | – | – | – | – | 11 to 31 | 25 | > 60 | 78
3 | O=C(O)C1CN(C[C@@H](O)CO)S(=O)(=O)c2c(-c3cccc(C(F)(F)F)c3)c(Cc3cccc4ccccc34)cc(=O)n21 (mixture of isomers) [Compound 065b, 2-((R)-2,3-dihydroxypropyl)-8-(naphthalen-1-ylmethyl)-6-oxo-9-(3-(trifluoromethyl)phenyl)-3,4-dihydro-2H,6H-pyrido[1,2-e][1,2,5]thiadiazine-4-carboxylic acid 1,1-dioxide] | – | – | – | – | > 60 | 66 | 11 to 31 | 16
4 | CC(C)N1CC(C(=O)O)n2c(c(-c3cccc(C(F)(F)F)c3)c(Cc3cccc4ccccc34)c(C(N)=O)c2=O)S1(=O)=O (stereo not drawn) [Compound 175, 7-carbamoyl-2-isopropyl-8-(naphthalen-1-ylmethyl)-6-oxo-9-(3-(trifluoromethyl)phenyl)-3,4-dihydro-2H,6H-pyrido[1,2-e][1,2,5]thiadiazine-4-carboxylic acid 1,1-dioxide] | 31 to 60 | 33 | 11 to 31 | 24 | – | – | – | –
5 | O=C(O)C1CN(Cc2cccc(O)c2)c2c(-c3cccc(C(F)(F)F)c3)c(Cc3cccc4ccccc34)c(Cl)c(=O)n21 (stereo not drawn) [Compound 196, 6-chloro-1-(3-hydroxybenzyl)-7-(naphthalen-1-ylmethyl)-5-oxo-8-(3-(trifluoromethyl)phenyl)-1,2,3,5-tetrahydroimidazo[1,2-a]pyridine-3-carboxylic acid] | > 60 | 67 | – | – | – | – | – | –
6 | CNC(=O)CCCN1CC(C(=O)O)n2c(c(-c3cccc(C(F)(F)F)c3)c(Cc3cccc4ccccc34)cc2=O)S1(=O)=O (stereo not drawn) [Compound 037, 2-(4-(methylamino)-4-oxobutyl)-8-(naphthalen-1-ylmethyl)-6-oxo-9-(3-(trifluoromethyl)phenyl)-3,4-dihydro-2H,6H-pyrido[1,2-e][1,2,5]thiadiazine-4-carboxylic acid 1,1-dioxide] | – | – | – | – | > 60 | 71 | 31 to 60 | 53
7 | CCCCN1CC(C(=O)O)n2c(c(-c3cccc(C(F)(F)F)c3)c(Cc3cccc4ccccc34)c(C(N)=O)c2=O)S1(=O)=O (stereo not drawn) [Compound 177, 2-butyl-7-carbamoyl-8-(naphthalen-1-ylmethyl)-6-oxo-9-(3-(trifluoromethyl)phenyl)-3,4-dihydro-2H,6H-pyrido[1,2-e][1,2,5]thiadiazine-4-carboxylic acid 1,1-dioxide] | 31 to 60 | 32 | 11 to 31 | 21 | – | – | – | –
8 | O=C(O)C1CSc2c(-c3cccc(C(F)(F)F)c3)c(Cc3cccc4ccccc34)cc(=S)n21 (stereo not drawn) [Compound 054, 7-(naphthalen-1-ylmethyl)-5-thioxo-8-(3-(trifluoromethyl)phenyl)-2,3-dihydro-5H-thiazolo[3,2-a]pyridine-3-carboxylic acid] | – | – | – | – | 31 to 60 | 44 | 31 to 60 | 50
